Patent US12146004B2, “Polymyxin compounds and uses thereof” (priority 2014, dated 2024)
≈ marks a conversion by molar mass, not a printed value. Bridge positions count the residues as written; N and C are the ends. Square brackets hold non-standard residues; d marks the D form. Peptide text beside a SMILES is read from it. * marks the point of attachment. X9 = Cc1ccc(CO[C@@H](CCN)C(=O)*)cc1; dCha = N[C@H](CC1CCCCC1)C(=O)O; X4 = CC(C)CC1CNCC(C(=O)*)C1; X15 = NCCC(CC1CCCC1)C(=O)*; X22 = NC(CCC(=O)*)C1CCCCC1; X24 = NCCC(Cc1ccsc1)C(=O)*; Dab = NCC[C@H](N)C(=O)O; Dap = NC[C@H](N)C(=O)O

Assays:
Assay type in all cases: cell-based
Pseudomonas aeruginosa = tested on: Pseudomonas aeruginosa
How it was run: (§1)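 In vitro susceptibility was determined across up to nine strains of each pathogen, some resistant. Potency is given as MIC, μg/mL.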

Klebsiella pneumoniae = tested on: Klebsiella pneumoniae
How it was run: as §1

Acinetobacter baumannii = tested on: Acinetobacter baumannii
How it was run: as §1

Escherichia coli = tested on: Escherichia coli
How it was run: as §1

Structure (SMILES)	MIC P. aeruginosa 068 (Pseudomonas aeruginosa) [µg/mL]	MIC P. aeruginosa 070 (Pseudomonas aeruginosa) [µg/mL]	MIC P. aeruginosa ATCC 27853 (Pseudomonas aeruginosa) [µg/mL]	MIC P. aeruginosa CCUG 59347 (Pseudomonas aeruginosa) [µg/mL]	MIC K. pneumoniae 063 (Klebsiella pneumoniae) [µg/mL]	MIC K. pneumoniae 065 (Klebsiella pneumoniae) [µg/mL]	MIC K. pneumoniae ATCC 13882 (Klebsiella pneumoniae) [µg/mL]	MIC A. baumanii 053 (Acinetobacter baumannii) [µg/mL]	MIC A. baumanii 056 (Acinetobacter baumannii) [µg/mL]	MIC A. baumanii ATCC BAA-747 (Acinetobacter baumannii) [µg/mL]	MIC A. baumanii NCTC 13424 (Acinetobacter baumannii) [µg/mL]	MIC E. coli 058 (Escherichia coli) [µg/mL]	MIC E. coli 061 (Escherichia coli) [µg/mL]	MIC E. coli ATCC 25922 (Escherichia coli) [µg/mL]	MIC K. pneumoniae ATCC 4352 (Klebsiella pneumoniae) [µg/mL]	MIC E. coli NCTC 9001 (Escherichia coli) [µg/mL]
CC(C)C[C@@H]1NC(=O)[C@@H](CC2CCCCC2)NC(=O)[C@H](CCN)NC(=O)[C@@H](NC(=O)[C@H](CN)NC(=O)[C@@H](NC(=O)CCC(N)C2CCCCC2)[C@@H](C)O)CCNC(=O)[C@H]([C@@H](C)O)NC(=O)[C@H](CCN)NC(=O)[C@H](CCN)NC1=O (stereo partly drawn) [Example 63, 4-amino-4-cyclohexylbutanoyl L-Thr-L-Dap-polymyxin [D-cyclohexylalanine]-6 heptapeptide.] (X22-T[Dap][Dab][Dab][dCha]L[Dab][Dab]T; lactam 3-C)	8 (≈ 7.13 µM)	8 (≈ 7.13 µM)	0.25 (≈ 0.223 µM)	0.5 (≈ 0.445 µM)	>64	4 (≈ 3.56 µM)	0.125 (≈ 0.111 µM)	64 (≈ 57 µM)	32 (≈ 28.5 µM)	0.125 (≈ 0.111 µM)	0.125 (≈ 0.111 µM)	4 (≈ 3.56 µM)	16 (≈ 14.3 µM)	0.25 (≈ 0.223 µM)		
CC(C)C[C@@H]1NC(=O)[C@@H](CC2CCCCC2)NC(=O)[C@H](CCN)NC(=O)[C@@H](NC(=O)[C@H](CN)NC(=O)[C@@H](NC(=O)C(CCN)Cc2ccsc2)[C@@H](C)O)CCNC(=O)[C@H]([C@@H](C)O)NC(=O)[C@H](CCN)NC(=O)[C@H](CCN)NC1=O (stereo partly drawn) [Example 68, 4-amino-2-(thiophen-3-ylmethyl)butanoyl L-Thr-L-Dap-polymyxin [D-cyclohexylalanine]-6 heptapeptide.] (X24-T[Dap][Dab][Dab][dCha]L[Dab][Dab]T; lactam 3-C)	1 (≈ 0.88 µM)	1 (≈ 0.88 µM)	0.25 (≈ 0.22 µM)	0.5 (≈ 0.44 µM)	16 (≈ 14.1 µM)	1 (≈ 0.88 µM)	0.25 (≈ 0.22 µM)	>64	64 (≈ 56.3 µM)	0.25 (≈ 0.22 µM)	0.25 (≈ 0.22 µM)	2 (≈ 1.76 µM)	16 (≈ 14.1 µM)	0.125 (≈ 0.11 µM)		
Cc1ccc(CO[C@@H](CCN)C(=O)N[C@H](C(=O)N[C@@H](CN)C(=O)N[C@H]2CCNC(=O)[C@H]([C@@H](C)O)NC(=O)[C@H](CCN)NC(=O)[C@H](CCN)NC(=O)[C@H](CC(C)C)NC(=O)[C@@H](CC3CCCCC3)NC(=O)[C@H](CCN)NC2=O)[C@@H](C)O)cc1 [Example 71, (S)-4-amino-2-((4-methylbenzyl)oxy) butanoyl L-Thr-L-Dap-polymyxin [D-cyclohexylalanine]-6 heptapeptide.] (X9-T[Dap][Dab][Dab][dCha]L[Dab][Dab]T; lactam 3-C)	8 (≈ 6.89 µM)	16 (≈ 13.8 µM)	0.25 (≈ 0.215 µM)	0.25 (≈ 0.215 µM)	64 (≈ 55.2 µM)	4 (≈ 3.45 µM)	0.25 (≈ 0.215 µM)	64 (≈ 55.2 µM)	32 (≈ 27.6 µM)	0.125 (≈ 0.108 µM)	0.125 (≈ 0.108 µM)	4 (≈ 3.45 µM)	16 (≈ 13.8 µM)	0.125 (≈ 0.108 µM)	0.25 (≈ 0.215 µM)	0.125 (≈ 0.108 µM)
CC(C)CC1CNCC(C(=O)N[C@H](C(=O)N[C@@H](CCN)C(=O)N[C@H]2CCNC(=O)[C@H]([C@@H](C)O)NC(=O)[C@H](CCN)NC(=O)[C@H](CCN)NC(=O)[C@H](CC(C)C)NC(=O)[C@@H](CC3CCCCC3)NC(=O)[C@H](CCN)NC2=O)[C@@H](C)O)C1 (stereo partly shown) [Example 73] (X4-T[Dab][Dab][Dab][dCha]L[Dab][Dab]T; lactam 3-C)	1 (≈ 0.88 µM)	1 (≈ 0.88 µM)	0.5 (≈ 0.44 µM)	0.5 (≈ 0.44 µM)	8 (≈ 7.04 µM)	2 (≈ 1.76 µM)	0.25 (≈ 0.22 µM)	64 (≈ 56.3 µM)	16 (≈ 14.1 µM)	0.25 (≈ 0.22 µM)	0.125 (≈ 0.11 µM)	1 (≈ 0.88 µM)	2 (≈ 1.76 µM)	0.125 (≈ 0.11 µM)		0.125 (≈ 0.11 µM)
CC(C)C[C@@H]1NC(=O)[C@@H](CC2CCCCC2)NC(=O)[C@H](CCN)NC(=O)[C@@H](NC(=O)[C@H](CN)NC(=O)[C@@H](NC(=O)C(CCN)CC2CCCC2)[C@@H](C)O)CCNC(=O)[C@H]([C@@H](C)O)NC(=O)[C@H](CCN)NC(=O)[C@H](CCN)NC1=O (stereo partly drawn) [Example 75, 4-amino-2-(cyclopentylmethyl) butanoyl L-Thr-L-Dap-polymyxin [D-cyclohexylalanine]-6 heptapeptide.] (X15-T[Dap][Dab][Dab][dCha]L[Dab][Dab]T; lactam 3-C)	2 (≈ 1.78 µM)	2 (≈ 1.78 µM)	0.25 (≈ 0.223 µM)	0.25 (≈ 0.223 µM)	16 (≈ 14.3 µM)	1 (≈ 0.891 µM)	0.125 (≈ 0.111 µM)	>64	64 (≈ 57 µM)	0.125 (≈ 0.111 µM)	0.125 (≈ 0.111 µM)	2 (≈ 1.78 µM)	16 (≈ 14.3 µM)	0.125 (≈ 0.111 µM)		
